Reference: patent US7612087B2, “Heterocyclic compounds as inhibitors of beta-lactamases” (Novexel, priority 2002, dated 2009)

Columns and labels:
E. coli 250CF1 (Tem3) = assay: microbe, parasite or virus in culture; type: cell-based; details: compound at 5 mg/l, 24 hours at 37° C.; for MIC of Cefotaxime in combination with the compound: Trial 4, 250CF1 E. coli Tem3; for MIC of Piperacillin in combination with the compound: Trial 4, 250CF1 Tem3
Summary of the method: (§1)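 Broth micro-dilution; β-lactamine dilution series + test product fixed at 5 mg/l; inoculate; 24 h, 37° C; MIC = no visible growth, mg/l.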

β-lactamase P99 = biological target: T1, β-lactamase P99 (Enterobacter cloacae, UniProt P05364); assay: biochemical; details: 100 μM Nitrocefin, 50 mM sodium phosphate buffer pH7.0, 37° C.; read-out: IC50 nM/P99
T1 construct: The β-lactamases are isolated from bacterial strains which are resistant to penicillins and cephalosporins; endogenous in cells; host or cells: Enterobacter cloacae 293HT6 (natural producer; French-press lysate, 100,000 g supernatant)
Summary of the method: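 P99 β-lactamase, taken from the soluble fraction of an Enterobacter cloacae 293HT6 lysate, was assayed at 37° C. in 50 mM sodium phosphate buffer pH7.0 with 100 μM Nitrocefin as the chromogenic substrate. Hydrolysis was followed kinetically at 485 nm at initial speed, with and without a 5 mn enzyme–inhibitor preincubation. Inhibitors were tested at 6 or 8 concentrations in duplicate, and IC50 was fitted with GraFit.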

Serratia 301HT6 = assay: MIC, micro-dilution in liquid medium, β-lactamine with product at 5 mg/l; type: cell-based; details: compound at 5 mg/l; Trial 10, 301HT6 Serratia; 24 hours at 37° C.
Summary of the method: as §1

[1] = tested on: E. coli 250HT23 (Class D); assay: as above; type: cell-based; details: compound at 5 mg/l, 24 hours at 37° C.; for MIC of Piperacillin in combination with the compound: Trial 8, 250HT23 Class D; for MIC of Cefotaxime in combination with the compound: Trial 8, 250HT23 E. coli Class D
Summary of the method: as §1

E. coli 250HT21 (Tem1) = assay: as above; type: cell-based; details: compound at 5 mg/l, 24 hours at 37° C.; for MIC of Cefotaxime in combination with the compound: Trial 2, 250HT21 E. coli Tem1; for MIC of Piperacillin in combination with the compound: Trial 2, 250HT21 Tem1
Summary of the method: as §1

[2] = tested on: P. aeruginosa 391HT8 (PSE); assay: as above; type: cell-based; details: compound at 5 mg/l, 24 hours at 37° C.; for MIC of Cefotaxime in combination with the compound: Trial 12, 391HT8 P. aeruginosa PSE; for MIC of Piperacillin in combination with the compound: Trial 12, 391HT8 PSE
Summary of the method: as §1

[3] = tested on: E. cloacae 293HT6 (Class C); assay: as above; type: cell-based; details: compound at 5 mg/l, 24 hours at 37° C.; for MIC of Piperacillin in combination with the compound: Trial 9, 293HT6 Class; for MIC of Cefotaxime in combination with the compound: Trial 9, 293HT6 E. cloacae Class C
Summary of the method: as §1

[4] = tested on: S. aureus 011GO66 (PeniR); assay: as above; type: cell-based; details: compound at 5 mg/l, 24 hours at 37° C.; for MIC of Cefotaxime in combination with the compound: Trial 1, 011GO66 S. aureus PeniR; for MIC of Piperacillin in combination with the compound: Trial 1, 011GO66 peniR
Summary of the method: as §1

E. coli 250BE1 (SHV4) = assay: as above; type: cell-based; details: compound at 5 mg/l, 24 hours at 37° C.; for MIC of Cefotaxime in combination with the compound: Trial 7, 250BE1 E. coli SHV4; for MIC of Piperacillin in combination with the compound: Trial 7, 250BE1 SHV4
Summary of the method: as §1

E. coli 250HT26 (SHV1) = assay: as above; type: cell-based; details: compound at 5 mg/l, 24 hours at 37° C.; for MIC of Cefotaxime in combination with the compound: Trial 6, 250HT26 E. coli SHV1; for MIC of Piperacillin in combination with the compound: Trial 6, 250HT26 SHV1
Summary of the method: as §1

E. coli 250HT22 (Tem2) = assay: as above; type: cell-based; details: compound at 5 mg/l, 24 hours at 37° C.; for MIC of Cefotaxime in combination with the compound: Trial 3, 250HT22 E. coli Tem2; for MIC of Piperacillin in combination with the compound: Trial 3, 250HT22 Tem2
Summary of the method: as §1

[5] = tested on: P. aeruginosa 391HT7 (PSE); assay: as above; type: cell-based; details: compound at 5 mg/l, 24 hours at 37° C.; for MIC of Cefotaxime in combination with the compound: Trial 11, 391HT7 P. aeruginosa PSE; for MIC of Piperacillin in combination with the compound: Trial 11, 391HT7 PSE
Summary of the method: as §1

E. coli 250SJ1 (Tem7) = assay: as above; type: cell-based; details: compound at 5 mg/l, 24 hours at 37° C.; for MIC of Cefotaxime in combination with the compound: Trial 5, 250SJ1 E. coli Tem7; for MIC of Piperacillin in combination with the compound: Trial 5, 250SJ1 Tem7
Summary of the method: as §1

β-lactamase TEM1 = biological target: T2, β-lactamase TEM1 (Escherichia coli, UniProt P62593); assay: Inhibition of isolated β-lactamase Tem-1 (Nitrocefin hydrolysis); type: biochemical, E.coli 250HT21; details: 100 μM Nitrocefin, 50 mM sodium phosphate buffer pH7.0, 37° C.
T2 construct: The β-lactamases are isolated from bacterial strains which are resistant to penicillins and cephalosporins; endogenous in cells; host or cells: E. coli 250HT21 (natural producer; French-press lysate, 100,000 g supernatant)
Summary of the method: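 TEM-1 from soluble extract of E. coli 250HT21, normalized enzyme, 100 μM Nitrocefin in 50 mM sodium phosphate pH 7.0 at 37 °C. Initial-rate hydrolysis read kinetically at 485 nm, with and without 5 min enzyme–inhibitor preincubation. CI50 from 6 or 8 concentrations in duplicate.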

T2 sequence (P62593 24-286 limits assumed): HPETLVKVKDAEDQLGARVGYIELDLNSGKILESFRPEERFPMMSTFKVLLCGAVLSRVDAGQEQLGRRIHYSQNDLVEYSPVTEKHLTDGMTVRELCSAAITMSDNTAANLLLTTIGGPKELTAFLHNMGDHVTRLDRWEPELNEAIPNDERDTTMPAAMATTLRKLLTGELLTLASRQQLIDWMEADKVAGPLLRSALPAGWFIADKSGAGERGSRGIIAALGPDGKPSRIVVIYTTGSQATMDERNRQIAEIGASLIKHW
T1 sequence (P05364 21-381): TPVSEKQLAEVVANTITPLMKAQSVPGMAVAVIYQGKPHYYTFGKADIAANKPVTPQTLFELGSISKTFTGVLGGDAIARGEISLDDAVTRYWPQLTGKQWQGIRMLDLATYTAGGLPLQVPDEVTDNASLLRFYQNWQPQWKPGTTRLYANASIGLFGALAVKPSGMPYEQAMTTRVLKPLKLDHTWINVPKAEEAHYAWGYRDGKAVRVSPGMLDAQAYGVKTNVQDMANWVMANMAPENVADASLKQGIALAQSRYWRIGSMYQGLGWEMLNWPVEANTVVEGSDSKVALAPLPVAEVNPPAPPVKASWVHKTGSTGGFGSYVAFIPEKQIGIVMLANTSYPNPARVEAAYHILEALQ

Row | SMILES | MIC of Cefotaxime in combination with the compound (E. coli 250CF1 (Tem3)) | MIC of Piperacillin in combination with the compound (E. coli 250CF1 (Tem3)) | IC50 (β-lactamase P99) | MIC of Cefotaxime in combination with the compound (Serratia 301HT6) | MIC of Piperacillin in combination with the compound (Serratia 301HT6) | MIC of Piperacillin in combination with the compound [1] | MIC of Cefotaxime in combination with the compound [1] | MIC of Cefotaxime in combination with the compound (E. coli 250HT21 (Tem1)) | MIC of Piperacillin in combination with the compound (E. coli 250HT21 (Tem1)) | MIC of Cefotaxime in combination with the compound [2] | MIC of Piperacillin in combination with the compound [2] | MIC of Piperacillin in combination with the compound [3] | MIC of Cefotaxime in combination with the compound [3] | MIC of Cefotaxime in combination with the compound [4] | MIC of Piperacillin in combination with the compound [4] | MIC of Cefotaxime in combination with the compound (E. coli 250BE1 (SHV4)) | MIC of Piperacillin in combination with the compound (E. coli 250BE1 (SHV4)) | MIC of Cefotaxime in combination with the compound (E. coli 250HT26 (SHV1)) | MIC of Piperacillin in combination with the compound (E. coli 250HT26 (SHV1)) | MIC of Cefotaxime in combination with the compound (E. coli 250HT22 (Tem2)) | also measured
1 | CN(C)c1ccc(NC(=O)[C@H]2CC[C@@H]3CN2C(=O)N3OS(=O)(=O)[O-])cc1.[Na+] (relative stereo) [Example 40, sodium salt of trans-N-[4-(dimethylamino)phenyl]-7-oxo-6-(sulphooxy)-1,6-diazabicyclo[3.2.1]octane-2-carboxamide] | 0.6 µg/mL | >40 µg/mL | 96 nM | 0.08 µg/mL | 1.2 µg/mL | 20 µg/mL | <=0.04 μg/ml | <=0.04 μg/ml | 10 µg/mL | >40 µg/mL | >40 µg/mL | >40 µg/mL | >40 µg/mL | 2.5 µg/mL | 0.6 µg/mL | 1.2 µg/mL | >40 µg/mL | <=0.04 μg/ml | >40 µg/mL | <=0.04 μg/ml | MIC of Piperacillin in combination with the compound (E. coli 250HT22 (Tem2)): >40 µg/mL; MIC of Cefotaxime in combination with the compound [5]: >40 µg/mL; MIC of Piperacillin in combination with the compound [5]: >40 µg/mL; MIC of Cefotaxime in combination with the compound (E. coli 250SJ1 (Tem7)): 0.15 µg/mL; MIC of Piperacillin in combination with the compound (E. coli 250SJ1 (Tem7)): >40 µg/mL; IC50 (β-lactamase TEM1): 51 nM
2 | CN(C)c1cccc(NC(=O)[C@H]2CC[C@@H]3CN2C(=O)N3OS(=O)(=O)[O-])c1.[Na+] (relative stereo) [Example 41, sodium salt of trans-N-[3-(dimethylamino)phenyl]-7-oxo-6-(sulphooxy)-1,6-diazabicyclo[3.2.1]octane-2-carboxamide] | 2.5 µg/mL | >40 µg/mL | 120 nM | 0.08 µg/mL | 1.2 µg/mL | 40 µg/mL | 0.08 µg/mL | <=0.04 μg/ml | 40 µg/mL | >40 µg/mL | >40 µg/mL | >40 µg/mL | >40 µg/mL | 2.5 µg/mL | 1.2 µg/mL | >40 µg/mL | >40 µg/mL | <=0.04 μg/ml | >40 µg/mL | <=0.04 μg/ml | MIC of Piperacillin in combination with the compound (E. coli 250HT22 (Tem2)): >40 µg/mL; MIC of Cefotaxime in combination with the compound [5]: >40 µg/mL; MIC of Piperacillin in combination with the compound [5]: >40 µg/mL; MIC of Cefotaxime in combination with the compound (E. coli 250SJ1 (Tem7)): 0.6 µg/mL; MIC of Piperacillin in combination with the compound (E. coli 250SJ1 (Tem7)): >40 µg/mL; IC50 (β-lactamase TEM1): 14 nM
